ChEMBL document CHEMBL3751703, “Structure-based design of a bisphosphonate 5(3)-deoxyribonucleotidase inhibitor” (Medchemcomm, 2015)

Assays:
[1] = organism: Homo sapiens; assay: Selectivity ratio of Ki for N-terminal hexaHis-tagged human cytosolic 5'(3')-deoxynucleotidase to Ki for N-terminal hexaHis-tagged human mitochondrial 5'(3')-deoxynucleotidase
[2] = target: 5'(3')-deoxyribonucleotidase, mitochondrial (Homo sapiens, UniProt Q9NPB1); assay: Inhibition of N-terminal hexaHis-tagged human mitochondrial 5'(3')-deoxynucleotidase using dUMP as substrate
[3] = target: 5'(3')-deoxyribonucleotidase, cytosolic type (Homo sapiens, UniProt Q8TCD5); assay: Inhibition of N-terminal hexaHis-tagged human cytosolic 5'(3')-deoxynucleotidase using dUMP as substrate
Sequence of 5'(3')-deoxyribonucleotidase, cytosolic type (Q8TCD5 whole entry): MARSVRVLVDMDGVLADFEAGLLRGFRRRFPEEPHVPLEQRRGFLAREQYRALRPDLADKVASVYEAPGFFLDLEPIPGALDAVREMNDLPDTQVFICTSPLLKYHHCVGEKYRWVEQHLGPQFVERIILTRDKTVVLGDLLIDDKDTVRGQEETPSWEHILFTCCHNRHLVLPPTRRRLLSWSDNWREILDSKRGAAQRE

Sequence of 5'(3')-deoxyribonucleotidase, mitochondrial (Q9NPB1 whole entry): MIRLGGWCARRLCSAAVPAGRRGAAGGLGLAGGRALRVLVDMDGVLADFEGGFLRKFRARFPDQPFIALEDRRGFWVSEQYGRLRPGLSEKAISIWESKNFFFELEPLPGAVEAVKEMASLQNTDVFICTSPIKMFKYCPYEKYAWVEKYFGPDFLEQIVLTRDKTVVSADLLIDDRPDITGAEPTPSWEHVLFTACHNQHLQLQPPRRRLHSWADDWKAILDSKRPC

O=c1[nH]c(=O)n([C@H]2C[C@H]3O[C@](c4ccccc4)(P(=O)(O)O)OC[C@H]3O2)cc1/C=C/P(=O)(O)O
Ratio Ki [1]: 20 | Ki [2]: 128 nM | Ki [3]: 21.7 µM
